Tested on: soybean rust fungus (Phakopsora pachyrhizi) having an amino acid substitution of F129L in a mitochondrial cytochrome b protein
Assay: Leaf disc test: preventive spray, then inoculation with soybean rust fungus spores, lesion area investigated
Format: in vivo
Settings: Comparative Test Example 1 (Table A)
Description: A true leaf of a soybean (cultivar: Kurosengoku) was cut into a diameter of 1 cm to prepare each leaf disc. To each well of a 24 well microplate was dispensed 1 mL of an agar medium (agar concentration 1.2%), and then one of said leaf disc was placed on each well. To a mixture of Sorpol (registered trademark) 1200KX (0.5 µL), DMSO (4.5 µL), and xylene (5 µL) was added a DMSO solution (20 µL) comprising a test compound (10000 ppm), and the resulting mixture was mixed. The resulting mixture was diluted with ion exchange water to prepare a spray solution comprising a prescribed concentration of the test compound. Said spray solution was sprayed into each leaf disc at a ratio of 10 µL per leaf disc. After 1 day, an aqueous suspension of spores of soybean rust fungus (Phakopsora pachyrhizi) having an amino acid substitution of F129L in a mitochondrial cytochrome b protein (1.0 × 10^5/mL) was inoculated by spraying on each leaf disc. After the inoculation, the microplate was placed into an artificial climate chamber (Lighting: 6 hours, Lights-out: 18 hours, Temperature: 23° C., Humidity: 60%). After 1 day, the leaf discs were air-dried until water droplets on the surfaces of the leaf discs disappeared, and the microplate was placed into the artificial climate chamber again for 12 days. Then, lesion area of soybean rust was investigated. As a result, when the prescribed concentration was 50 ppm, each lesion area of leaf disc treated with any one of the Present compound 2, 6, 8, 25, 29, or 35 as the test compound was 30% or less relative to the lesion area of non-treated leaf disc.
Here, the term of “non-treated” means that a spray solution comprising a test compound was not sprayed into a leaf disc.
Each test is carried out according to the Test Example 1 by using any one of the Present compound S as the test compound with a prescribed concentration of 12.5 ppm. As a result, control effects on soybean rust can be confirmed in the leaf discs treated with test compounds.
Each test is carried out according to the Test Example 1 by using any one of the Present compound S as the test compound with a prescribed concentration of 3.1 ppm. As a result, control effects on soybean rust can be confirmed in the leaf discs treated with test compounds.
Each test was carried out according to the Test Example 1 by using the Present compound 2, 6, 8, 29 or 35, or azoxystrobin, dimoxystrobin, or metominostrobin as the test compound with a prescribed concentration of 50 ppm.

SMILES | Lesion area (%) at the concentration of 50 ppm
CO/C=C(/C(=O)OC)c1ccccc1Oc1cc(Oc2ccccc2C#N)ncn1 [Azoxystrobin, azoxystrobin, reference compound] | 100%
CNC(=O)/C(=N/OC)c1ccccc1COc1cc(C)ccc1C [Dimoxystrobin, dimoxystrobin, reference compound] | 100%
CNC(=O)/C(=N/OC)c1ccccc1Oc1ccccc1 [Metominostrobin, metominostrobin, reference compound] | 100%
CO/C=C(/C(=O)OC)c1cccc2oc(-c3ccccc3)nc12 [Present compound 2] | 10%
CO/C=C(/C(=O)OC)c1cccc2sc(-c3ccccc3)nc12 [Present compound 6] | 30%
CO/C=C(/C(=O)OC)c1cccc2ccc(-c3ccccc3)cc12 [Present compound 8] | 0%
Cn1nc(Cl)n(-c2cccc3oc(Cc4ccccc4)nc23)c1=O [Present compound 29] | 10%
Cn1nc(Cl)n(-c2cccc3oc(COc4ccccc4)nc23)c1=O [Present compound 35] | 0%

Reference: patent US20230337672A1, “METHOD OF C[…] RUST FUNGUS HAVING RESISTANCE TO QoI FUNGICIDE” (SUMITOMO CHEMICAL COMPANY, LIMITED, priority 2020, published 2023)
